From PubChem BioAssay AID198 (DTP/NCI, 2004)
Several values for one entry are separate records, joined by “and”; a condition that tells them apart may be missing. Identical values can stand only once. Toxic doses and inconclusive results are not listed.

Tested on: B16 melanoma ip, C57BL/6 mice, median survival T/C
Experiment: NCI In Vivo Anticancer Drug Screen. Data for tumor model B16 Melanoma (intraperitoneal) in C57BL/6 mice
Details: endpoint: median survival time, higher = longer survival
Procedure: The antitumor activity of compounds was measured in mice bearing transplantable tumors. Survival or tumor size were measured and the results are expressed as the measurement made in the treated group (T) divided by the measurement made in the vehicle treated control group (C). The tumor model used in this assay is B16 Melanoma (intraperitoneal) in C57BL/6 mice

[1] = dose: 6.25 mg/kg/injection, schedule: Q01DX009 (ip), vehicle: saline
[2] = dose: 12.5 mg/kg/injection, schedule: Q01DX009 (ip), vehicle: saline
[3] = dose: 25.0 mg/kg/injection, schedule: Q01DX009 (ip), vehicle: saline
[4] = dose: 50.0 mg/kg/injection, schedule: Q01DX009 (ip), vehicle: saline
[5] = dose: 100.0 mg/kg/injection, schedule: Q01DX009 (ip), vehicle: saline
[6] = dose: 3.13 mg/kg/injection, schedule: Q01DX009 (ip), vehicle: saline
[7] = dose: 25.0 mg/kg/injection, schedule: Q01DX009 (ip), vehicle: saline with Tween-80
[8] = dose: 50.0 mg/kg/injection, schedule: Q01DX009 (ip), vehicle: saline with Tween-80
[9] = dose: 100.0 mg/kg/injection, schedule: Q01DX009 (ip), vehicle: saline with Tween-80
[10] = dose: 62.5 mg/kg/injection, schedule: Q01DX009 (ip), vehicle: saline
[11] = dose: 125.0 mg/kg/injection, schedule: Q01DX009 (ip), vehicle: saline

**Q.** What does the source list for `C[n+]1c2ccccc2c(Nc2ccc(NS(=O)(=O)CCCCN=C(N)N)cc2)c2ccc(N)cc21`?
**A.** T/C (dose: 0.38 mg/kg/injection, schedule: Q01DX009 (ip), vehicle: water): 115 % of control; T/C (dose: 0.75 mg/kg/injection, schedule: Q01DX009 (ip), vehicle: water): 158 % of control; T/C (dose: 1.5 mg/kg/injection, schedule: Q01DX009 (ip), vehicle: water): 151 % of control; T/C (dose: 3.0 mg/kg/injection, schedule: Q01DX009 (ip), vehicle: water): 113 % of control; T/C (dose: 6.0 mg/kg/injection, schedule: Q01DX009 (ip), vehicle: water): 101 % of control

**Q.** Which T/C [1] does the source give for `CN(C)CCCN1c2ccc(O)cc2Sc2ccc(Cl)cc21` here?
**A.** The T/C was 109 % of control.

**Q.** And the T/C [2]?
**A.** The T/C was 115 % of control.

**Q.** And the T/C [3]?
**A.** Its T/C is 103 % of control.

**Q.** What about the T/C [4] of the same compound?
**A.** The T/C was 103 % of control and 106 % of control.

**Q.** And the T/C [5]?
**A.** The T/C was 100 % of control.

**Q.** How did the T/C [6] turn out when `CCCCc1ccc(NC(=O)N(CCCl)N=O)cc1` was run?
**A.** Its T/C is 200 % of control.

**Q.** What about the T/C [1] of the same compound?
**A.** Its T/C is 210 % of control.

**Q.** Which results are given for `CN1C=c2c3c(ccc2=C2C=CC4C=C5OCOC5=CC4=C21)OCO3` (stereo unspecified)?
**A.** T/C (dose: 1.0 mg/kg/injection, schedule: Q01DX009 (ip), vehicle: saline with Tween-80): 103 % of control; T/C (dose: 2.0 mg/kg/injection, schedule: Q01DX009 (ip), vehicle: saline with Tween-80): 92 % of control; T/C (dose: 4.0 mg/kg/injection, schedule: Q01DX009 (ip), vehicle: saline with Tween-80): 96 % of control

**Q.** With `O=NN(CCF)C(=O)NC1CCS(=O)(=O)CC1` as the compound, how does the T/C (dose: 7.5 mg/kg/injection, schedule: Q01DX001 (ip), vehicle: saline) read?
**A.** The T/C was 212 % of control.

**Q.** What about the T/C (dose: 15.0 mg/kg/injection, schedule: Q01DX001 (ip), vehicle: saline) of the same compound?
**A.** The T/C was 200 % of control.

**Q.** What about the T/C (dose: 30.0 mg/kg/injection, schedule: Q01DX001 (ip), vehicle: saline) of the same compound?
**A.** Its T/C is 175 % of control.

**Q.** `CCN(CC)CCOc1ccc2c(c1)C(=O)c1cc(OCCN(CC)CC)ccc1-2` was tested. Which T/C [7] did it give?
**A.** Its T/C is 103 % of control.

**Q.** And the T/C [8]?
**A.** Its T/C is 92 % of control.

**Q.** And the T/C [9]?
**A.** Its T/C is 114 % of control.

**Q.** Which T/C [3] does the source give for `COc1c(C)c2c(c(O)c1C/C=C(\C)CCC(=O)O)C(=O)OC2` here?
**A.** The T/C was 106 % of control.

**Q.** What about the T/C [4] of the same compound?
**A.** Its T/C is 113 % of control.

**Q.** And the T/C [5]?
**A.** The T/C was 110 % of control.

**Q.** What about the T/C (dose: 200.0 mg/kg/injection, schedule: Q01DX009 (ip), vehicle: saline) of the same compound?
**A.** Its T/C is 106 % of control.

**Q.** How did the T/C (dose: 15.6 mg/kg/injection, schedule: Q01DX009 (ip), vehicle: saline) turn out when `C=CCN(CC=C)c1ncnc2[nH]ncc12` was run?
**A.** The T/C was 105 % of control.

**Q.** What about the T/C (dose: 31.3 mg/kg/injection, schedule: Q01DX009 (ip), vehicle: saline) of the same compound?
**A.** The T/C was 100 % of control.

**Q.** What about the T/C [10] of the same compound?
**A.** Its T/C is 102 % of control.

**Q.** What about the T/C [11] of the same compound?
**A.** The T/C was 102 % of control.

**Q.** For `c1ccc2sc(SSN3CC4CCC(CC4)C3)nc2c1`, which T/C (dose: 12.5 mg/kg/injection, schedule: Q01DX009 (ip), vehicle: saline with Tween-80) is on record?
**A.** The T/C was 100 % of control.

**Q.** And the T/C [7]?
**A.** The T/C was 94 % of control.

**Q.** What about the T/C [8] of the same compound?
**A.** Its T/C is 94 % of control.

**Q.** And the T/C [9]?
**A.** Its T/C is 89 % of control.

**Q.** What about the T/C (dose: 200.0 mg/kg/injection, schedule: Q01DX009 (ip), vehicle: saline with Tween-80) of the same compound?
**A.** Its T/C is 88 % of control.

**Q.** With `COC(N)=O` as the compound, how does the T/C [10] read?
**A.** Its T/C is 100 % of control and 107 % of control.

**Q.** What about the T/C [11] of the same compound?
**A.** The T/C was 103 % of control and 106 % of control.

**Q.** And the T/C (dose: 250.0 mg/kg/injection, schedule: Q01DX009 (ip), vehicle: saline)?
**A.** Its T/C is 100 % of control and 107 % of control.

**Q.** And the T/C (dose: 500.0 mg/kg/injection, schedule: Q01DX009 (ip), vehicle: saline)?
**A.** Its T/C is 110 % of control.

**Q.** Which results are given for `CN(Cc1cnc2nc(N)nc(N)c2n1)c1ccc(C(=O)N[C@@H](CCC(=O)O)C(=O)O)cc1`?
**A.** T/C (dose: 0.38 mg/kg/injection, schedule: Q01DX009 (ip), vehicle: saline): 100 % of control and 106 % of control; T/C (dose: 0.75 mg/kg/injection, schedule: Q01DX009 (ip), vehicle: saline): 100 % of control and 106 % of control; T/C (dose: 1.5 mg/kg/injection, schedule: Q01DX009 (ip), vehicle: saline): 93 % of control and 100 % of control; T/C (dose: 3.0 mg/kg/injection, schedule: Q01DX009 (ip), vehicle: saline): 100 % of control

**Q.** Which T/C (dose: 1.56 mg/kg/injection, schedule: Q01DX009 (ip), vehicle: saline) does the source give for `COc1cc(N(CCCl)CCCl)ccc1NC(=O)c1ccccc1` here?
**A.** The T/C was 102 % of control.

**Q.** And the T/C [6]?
**A.** The T/C was 115 % of control.

**Q.** What about the T/C [1] of the same compound?
**A.** Its T/C is 115 % of control.

**Q.** How did the T/C (dose: 0.06 mg/kg/injection, schedule: Q01DX009 (ip), vehicle: saline) turn out when `CC[C@]1(O)C[C@H]2CN(CCc3c([nH]c4ccccc34)[C@@](C(=O)OC)(c3cc4c(cc3OC)N(C=O)[C@H]3[C@@](O)(C(=O)OC)[C@H](OC(C)=O)[C@]5(CC)C=CCN6CC[C@]43[C@@H]65)C2)C1` was run?
**A.** The T/C was 182 % of control.

**Q.** And the T/C (dose: 0.13 mg/kg/injection, schedule: Q01DX009 (ip), vehicle: saline)?
**A.** Its T/C is 189 % of control.

**Q.** `O=C(O)CCCc1ccc(N(CCCl)CCCl)cc1` was tested. Which T/C [6] did it give?
**A.** The T/C was 96 % of control and 103 % of control.

**Q.** What about the T/C [1] of the same compound?
**A.** Its T/C is 100 % of control and 114 % of control.

**Q.** And the T/C [2]?
**A.** The T/C was 106 % of control and 112 % of control.

**Q.** What about the T/C [3] of the same compound?
**A.** Its T/C is 86 % of control.
